The record followed here is patent publication US10935544B2, “Glycan arrays and method of use” (OBI Pharma, Inc., priority 2015, dated 2021).

The test system of one assay is Human IgG. Put plainly: Glycan array analysis (primary test), glycan score of Human IgG. In kind it is binding. The text has this: (§1) This testing platform utilized Agnitio BioIC system which performed an automatically ELISA reaction within a microfluidic cartridge. Each cartridge contained an array of microfluidic pumps and valves, a channel network, reagent storage reservoirs, a glycan array reaction zone, and a waste storage reservoir. To perform the test, all reagent and test sample were pumped sequentially, from their respected reservoirs in to a reaction zone containing the glycan microarray in order to carry out a multiplexed ELISA reaction with chemical luminescence. The result data was captured simultaneously and data analysis was performed by the LabIT software provided by Agnitio Science and Technology Inc. The specification of equipment list of Agnitio BioIC system is listed in Table 2.
The Microfluidic cartridge was manufactured at Agnitio Science and Technology Inc. The microfluidic cartridge was composed by three layers shown in FIG. 9. The upper layer contained serum and reagents reservoirs, microfluidic pumps, and ELISA channel network. […]
(§2) The glycan array was put on the Agnitio BioIC Pumping Machine for pressurizing 30 minutes. The bound serum was visualized monitored using Agnitio BioIC Analyzer. The absorbance intensity of array was converted into “Glycan Scores” based on the following calculation: In certain examples, glycan scores=(raw data−background)/Internal Control×10. […]

The subject of assay [1] is Human IgM. Put plainly: Glycan array analysis (primary test), glycan score of Human IgM. In kind it is binding.
Excerpt: as §1
The Microfluidic cartridge was manufactured at Agnitio Science and Technology Inc. The microfluidic cartridge was composed by three layers shown in FIG. 9. The upper layer contained serum and reagents reservoirs, microfluidic pumps, and ELISA channel network. The rubber middle layer contained a coated nitrocellulose membrane. The glycan antigens (Globo H-ceramide and Globo H-lipid 1) were immobilized onto the nitrocellulose membrane via hydrophobic interactions. The bottom layer contained a tank as for the waste reservoir. There were one hundred and twenty spots for original array layout design. In order to ensure the spot-to-spot coefficient of variation (CV) was lower than 15%, we only used central sixty-four spots for following clinical sample test.
Reagent preparation: Sixty-six microliter Normal Human Serum (NETS) or pancreatic cancer patient's serum was added in 594 μL Sample Diluent Buffer (BioCheck Inc., Cat#MB 10175) to form ten-fold dilution. The Secondary Antibody Solution was performed by first adding 2 μL Horseradish peroxidase (HRP)-conjugated goat anti-human IgG (KPL Inc., Cat#474-1002)/IgM (KPL Inc., Cat#474-1003) in 98 μL Conjugate Buffer (SuperBlock (TBS) Blocking Buffer plus 0.2% Tween 20, Thermo Fisher Scientific Inc., Cat#37535) to form fifty-fold dilution. Next, 40 μL diluted solution was pumped into 2360 μL Conjugate Buffer to form the Secondary Antibody Solution (3000× diluted).
Assay procedure: Six hundred and twenty microliter Wash Buffer (Phosphate-buffered saline (Thermo Fisher Scientific Inc., Cat#70011) plus 0.2% (vol/vol) Tween 20 (J. T. Baker, Cat#JTB-X251-07)) was added in the “Wash” hole of array. […]
as §2

Assay [2] has as its system Human IgM. Put plainly: Glycan array analysis (secondary test), relative anti-glycan Human IgM, pancreatic cancer. In kind it is binding. How it is done: The reagents, equipment and assay procedures were totally the same as primary test. However, the intensity of array was converted into “Ab level (μg/mL)” based on following calculation which is relative to Anti-human Globo H IgG.
The internal curve of each chip was using linear regression to calculate slope and intercept. In certain examples, the Ab level (μg/mL)=[(raw data-intercept)/slope]×0.1. The internal curve was performed using 0.0625, 0.125, 0.25, 0.5, 0.75, and 1 μg/mL of human IgM.
Relative Anti-glycan Human IgM: There were total 277 clinical samples (108 pancreatic cancer and 169 healthy serum) performed using Globo H-lipid 1 and SSEA-4-lipid 1 immobilized arrays. The median values of Globo H-lipid 1 IgM test were 0.32 (pancreatic cancer) and 0.25 (healthy) [FIG. 11A]. The median values of SSEA-4-lipid 1 IgM test were 0.12 (pancreatic cancer) and 0.08 (healthy) [FIG. 11B].

The next assay relates to VK9. The assay can be described thus: ELISA binding of VK9 to plate-coated Globo H-ceramide and Globo H-lipids. The following applies: glycan immobilized on microtiter plate from 0.001 to 10 μg/mL; FIG. 8A. The method, then:
Enzyme-linked immunosorbent assay. Clear Flat-Bottom Immuno Nonsterile 96-Well Plates (Thermo Fisher Scientific Inc., Cat#442404)) were coated with the respective glycan-linked glycopeptides at 0.2 μg to 50 μL ethanol per well and were incubated at room temperature overnight. Then 100 μL Casein Blocking Buffer (Sigma-Aldrich Co. LLC, Cat#B6429) was added to each well and the microtiter plate was incubated at room temperature for 30 minutes. All subsequent steps were performed at room temperature.
The microtiter plate was treated with 50 μL of different dilutions of VK9 cells in Casein Blocking Buffer to each well and incubated at room temperature for 1 hr. The wells were then washed three times with Phosphate-buffered saline (Thermo Fisher Scientific Inc., Cat#70011) plus 0.05% (vol/vol) Tween 20 (J. T. Baker, Cat#JTB-X251-07) using a microplate washer (SkanWash 400, Molecular Devices LLC.). […]
The microtiter plate was treated with 100 μL of Alkaline Phosphatase (pNPP) Yellow Liquid Substrate System for ELISA (Sigma-Aldrich Co. LLC., Cat#P7998) at 37° C. for 20 minutes and the reaction was stopped by adding another 50 μL of Stop Solution (3N NaOH). The bound VK9 cells were visualized monitored at 405 nm using a microplate reader (SpectraMax M2, Molecular Devices LLC.). […]
In general terms: An ELISA detects its analyte on a solid surface through an enzyme-linked reagent.

The next assay deals with IgM. The assay can be described thus: Sugar array IgM binding with pancreatic cancer and healthy clinical samples. Further details: species or system human. How it is done: The Globo H lipid 1, Globo H lipid 2, and Globo H-ceramide were immobilized on microtiter plate from 0.001 to 10 μg/mL, separately. […] In addition, the comparison of IgM binding patterns of Globo H-ceramide, Globo H-lipid 1, and Globo H-lipid 2 using sugar array was listed in FIG. 8B. […] In some embodiments the complex binding agent may comprise any of the complex binding agents or detectable labels of this disclosure. In certain exemplary embodiments, the Globo H ceramide and Globo H lipids are the array elements and the IgM antibodies are from the sample. And then secondary labeled anti-human ab are used to detect the complexes

Take `CCCCCCCCCCCCCCCCOCC(OCCCCCCCCCCCCCCCC)C(=O)NCCCCCO[C@H]1OC(CO)[C@@H](O[C@@H]2OC(CO)[C@H](O[C@H]3OC(CO)[C@H](O)C(O[C@@H]4OC(CO)[C@H](O)C(O[C@@H]5OC(CO)[C@H](O)C(O)C5O[C@@H]5OC(C)[C@@H](O)C(O)C5O)C4NC(C)=O)C3O)C(O)C2O)C(O)C1O` (stereo partly shown) [Globo H-lipid 1]: the “median glycan score, IgG test” value was 0.12 with Human IgG (healthy serum) and 0.54 with Human IgG (pancreatic cancer serum). In addition, the “median glycan score, IgM test” value came out at 2.56 in the assay with Human IgM [1] (healthy serum) and 6.64 with Human IgM [1] (pancreatic cancer serum). Also, the “median Ab level, IgM test” value with Human IgM [2] (healthy serum) came out at 0.25 µg/mL; with Human IgM [2] (pancreatic cancer serum), 0.32 µg/mL.
With `CCCCCCCCCCCCCCCCOC[C@@H](COC(=O)CCCC(=O)NCCCCCO[C@H]1OC(CO)[C@@H](O[C@@H]2OC(CO)[C@H](O[C@H]3OC(CO)[C@H](O)C(O[C@@H]4OC(CO)[C@H](O)C(O[C@@H]5OC(CO)[C@H](O)C(O)C5O[C@@H]5OC(C)[C@@H](O)C(O)C5O)C4NC(C)=O)C3O)C(O)C2O)C(O)C1O)OCCCCCCCCCCCCCCCC` (stereo partly shown) [Globo H-lipid 2], the “optical density at 405 nm (OD405)” value in the assay with VK9 is “higher than Globo H-ceramide”.
Consider `CCCCCCCCCCCCCCCCOC[C@@H](OCCCCCCCCCCCCCCCC)C(=O)NCCCCCO[C@@H]1O[C@H](CO)[C@@H](O[C@@H]2O[C@H](CO)[C@H](O[C@H]3O[C@H](CO)[C@H](O)[C@H](O[C@@H]4O[C@H](CO)[C@H](O)[C@H](O[C@@H]5O[C@H](CO)[C@H](O)[C@H](O[C@]6(C(=O)O)C[C@H](O)[C@@H](NC(C)=O)[C@H]([C@H](O)[C@H](O)CO)O6)[C@H]5O)[C@H]4NC(C)=O)[C@H]3O)[C@H](O)[C@H]2O)[C@H](O)[C@H]1O` [SSEA-4-lipid 1], for which the “median Ab level, IgM test” value was 0.08 µg/mL in the assay on Human IgM [2] (healthy serum) and 0.12 µg/mL in the assay on Human IgM [2] (pancreatic cancer serum).
With Globo H-ceramide [reference compound], the “Mean (IgM) Healthy (n = 100)” value in the assay on IgM (healthy samples) is given as 1977.88. For the same compound, the “Mean (IgM) Pancreatic cancer (n = 115)” value in the assay with IgM (pancreatic cancer samples) is given as 3130.03. Further, the “median glycan score, IgM test” value is reported as 1.57 in the assay on Human IgM [1] (healthy serum) and 2.53 with Human IgM [1] (pancreatic cancer serum).
